# Reference: ChEMBL document CHEMBL1201862, “PubChem BioAssay data set” (2004)
#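 Method: 48-hour compound exposure of cells in 96-well plates, five concentrations, linear interpolation of endpoints. Abbreviation: GI50, concentration required for 50% inhibition of growth.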 Activity calls are given as the source filed them. Rule as the data show it: active = GI50 up to about 1.1 µM and inactive = higher.
# Legend:
# Test in all cases: NCI anticancer screen, dose series, 48 h
# [1] = test system: BT-549
# [2] = test system: COLO 205
# [3] = test system: DU-145
# [4] = test system: HCT-15
# [5] = test system: A498
# [6] = test system: MDA-MB-231
# [7] = test system: SNB-19
# [8] = test system: OVCAR-3
# [9] = test system: CCRF-CEM
# [10] = test system: HCC 2998
# [11] = test system: SK-MEL-5
# [12] = test system: SR
# [13] = test system: NCI-H460
# [14] = test system: SN12C
# [15] = test system: SF-295
# [16] = test system: CAKI-1
# [17] = test system: SK-OV-3
# [18] = test system: UACC-257
# [19] = test system: NCI/ADR-RES
SMILES,GI50 [1],GI50 [2],GI50 [3],GI50 [4] [µM],GI50 [5],GI50 [6],GI50 [7],GI50 [8],GI50 [9],GI50 [10],GI50 [11],GI50 [12],GI50 [13],GI50 [14],GI50 [15],GI50 [16],GI50 [17],GI50 [18],GI50 [19]
CN(C)CCNc1ccc2c(=O)n(CCN(C)C)c(=O)n3c4ccc(N)cc4c(=O)c1c23,0.407 µM (active),0.0675 µM (active),0.0665 µM (active),0.0211,0.408 µM (active),0.187 µM (active),0.0261 µM (active),0.0995 µM (active),< 0.01 µM (active),0.0392 µM (active),0.194 µM (active),< 0.0194 µM (active),< 0.01 µM (active),< 0.01 µM (active),0.0671 µM (active),0.115 µM (active),0.261 µM (active),0.258 µM (active),0.259 µM (active)
O=C1NC(=O)C(Cc2ccccc2)(c2cccnc2)N1 (stereo not given),> 100 µM (inactive),> 100 µM (inactive),> 100 µM (inactive),> 100,> 100 µM (inactive),> 100 µM (inactive),> 100 µM (inactive),> 100 µM (inactive),> 100 µM (inactive),> 100 µM (inactive),> 100 µM (inactive),> 100 µM (inactive),> 100 µM (inactive),> 100 µM (inactive),> 100 µM (inactive),> 100 µM (inactive),> 100 µM (inactive),> 100 µM (inactive),> 100 µM (inactive)
Cc1cc(N)ccc1C=O,> 100 µM (inactive),> 100 µM (inactive),> 100 µM (inactive),> 100,> 100 µM (inactive),> 100 µM (inactive),> 100 µM (inactive),> 100 µM (inactive),> 100 µM (inactive),> 100 µM (inactive),> 100 µM (inactive),> 100 µM (inactive),> 100 µM (inactive),> 100 µM (inactive),,> 100 µM (inactive),> 100 µM (inactive),> 100 µM (inactive),> 100 µM (inactive)
CSc1c(C(=O)Nc2ccccc2)c(N)n(N)c(=O)c1C#N,> 100 µM (inactive),> 100 µM (inactive),> 100 µM (inactive),> 100,30.5 µM (inactive),> 100 µM (inactive),> 100 µM (inactive),> 100 µM (inactive),> 100 µM (inactive),> 100 µM (inactive),> 100 µM (inactive),> 100 µM (inactive),> 100 µM (inactive),> 100 µM (inactive),,> 100 µM (inactive),> 100 µM (inactive),> 100 µM (inactive),> 100 µM (inactive)
Cc1cc2c(C(C)C)c(O)c(O)c(/C=N/c3cc(C(F)(F)F)ccc3Cl)c2c(O)c1-c1c(C)cc2c(C(C)C)c(O)c(O)c(/C=N/c3cc(C(F)(F)F)ccc3Cl)c2c1O,28.3 µM (inactive),31.2 µM (inactive),> 100 µM (inactive),34.8,64.3 µM (inactive),25.6 µM (inactive),28.1 µM (inactive),37.3 µM (inactive),> 100 µM (inactive),62.7 µM (inactive),23.6 µM (inactive),25.4 µM (inactive),31.3 µM (inactive),49.1 µM (inactive),,48.3 µM (inactive),12.5 µM (inactive),37.4 µM (inactive),63.5 µM (inactive)
Cc1c(NC(=S)Nc2ccc([N+](=O)[O-])cc2)c(=O)n(-c2ccccc2)n1C,> 100 µM (inactive),> 100 µM (inactive),> 100 µM (inactive),> 100,> 100 µM (inactive),> 100 µM (inactive),> 100 µM (inactive),> 100 µM (inactive),> 100 µM (inactive),> 100 µM (inactive),> 100 µM (inactive),> 100 µM (inactive),> 100 µM (inactive),,> 100 µM (inactive),> 100 µM (inactive),> 100 µM (inactive),> 100 µM (inactive),> 100 µM (inactive)
CC[C@]12C=CCN3CC[C@@]4(c5cc(N=O)c(OC)cc5N(C)[C@H]4[C@@](O)(C(=O)NC(Cc4c[nH]c5ccccc45)C(=O)OC)[C@@H]1O)[C@@H]32 (stereo not given in full),14.9 µM (inactive),15.4 µM (inactive),17.2 µM (inactive),20.3,32.4 µM (inactive),18.3 µM (inactive),19.9 µM (inactive),14.4 µM (inactive),3.27 µM (inactive),15.6 µM (inactive),14.8 µM (inactive),1.22 µM (inactive),19.1 µM (inactive),26.4 µM (inactive),17.1 µM (inactive),17.9 µM (inactive),20.2 µM (inactive),15.1 µM (inactive),> 100 µM (inactive)
O=C1[C@H](c2ccccc2)C2c3ccccc3CCN12 (stereo not given in full),> 10 µM (inactive),> 10 µM (inactive),> 10 µM (inactive),> 10,> 10 µM (inactive),> 10 µM (inactive),> 10 µM (inactive),> 10 µM (inactive),> 10 µM (inactive),> 10 µM (inactive),> 10 µM (inactive),> 10 µM (inactive),> 10 µM (inactive),> 10 µM (inactive),> 10 µM (inactive),> 10 µM (inactive),> 10 µM (inactive),> 10 µM (inactive),> 10 µM (inactive)
O=C1c2cc([N+](=O)[O-])ccc2NC2C(O)c3ccccc3N12 (stereo not given),22.8 µM (inactive),61.8 µM (inactive),9.55 µM (inactive),29.3,18.3 µM (inactive),31.6 µM (inactive),29 µM (inactive),20.4 µM (inactive),,47.9 µM (inactive),38 µM (inactive),19.3 µM (inactive),26.4 µM (inactive),48.9 µM (inactive),30.1 µM (inactive),21.6 µM (inactive),17.7 µM (inactive),16 µM (inactive),23.5 µM (inactive)
CCCCCCC(C)c1ccc2c(c1)C(=O)c1nc3ccncc3c(=O)n1-2 (stereo not given),4.21 µM (inactive),2.87 µM (inactive),14.6 µM (inactive),1.3,4.32 µM (inactive),2.54 µM (inactive),4.81 µM (inactive),1.45 µM (inactive),0.836 µM (active),3.94 µM (inactive),1.42 µM (inactive),0.225 µM (active),2.07 µM (inactive),4.33 µM (inactive),6.38 µM (inactive),2.54 µM (inactive),5.9 µM (inactive),2.84 µM (inactive),5.68 µM (inactive)
COc1ccc(N2CCOCC2)cc1,> 100 µM (inactive),> 100 µM (inactive),> 100 µM (inactive),> 100,> 100 µM (inactive),> 100 µM (inactive),> 100 µM (inactive),> 100 µM (inactive),> 100 µM (inactive),> 100 µM (inactive),> 100 µM (inactive),> 100 µM (inactive),> 100 µM (inactive),> 100 µM (inactive),> 100 µM (inactive),> 100 µM (inactive),> 100 µM (inactive),> 100 µM (inactive),> 100 µM (inactive)
Cc1cc(OP2(=O)NCc3ncccc3O2)ccc1Cl (stereo not given),> 100 µM (inactive),> 100 µM (inactive),> 100 µM (inactive),> 100,> 100 µM (inactive),> 100 µM (inactive),> 100 µM (inactive),> 100 µM (inactive),> 100 µM (inactive),40.6 µM (inactive),> 100 µM (inactive),> 100 µM (inactive),> 100 µM (inactive),> 100 µM (inactive),> 100 µM (inactive),> 100 µM (inactive),,> 100 µM (inactive),> 100 µM (inactive)
CCN(CC)c1ccc2cc(C(=O)Nc3ccc(C)cc3)c(=N)oc2c1,> 100 µM (inactive),> 100 µM (inactive),> 100 µM (inactive),> 100,> 100 µM (inactive),> 100 µM (inactive),> 100 µM (inactive),> 100 µM (inactive),> 100 µM (inactive),> 100 µM (inactive),> 100 µM (inactive),> 100 µM (inactive),> 100 µM (inactive),> 100 µM (inactive),,> 100 µM (inactive),> 100 µM (inactive),> 100 µM (inactive),> 100 µM (inactive)
O=C1/C(=C/c2ccccc2[N+](=O)[O-])N=C(c2ccccc2)N1c1nc2ccccc2s1,20 µM (inactive),,20.9 µM (inactive),17.5,28.1 µM (inactive),45.9 µM (inactive),42.6 µM (inactive),21.1 µM (inactive),< 0.01 µM (active),17.8 µM (inactive),25.2 µM (inactive),12.9 µM (inactive),27 µM (inactive),25 µM (inactive),40.2 µM (inactive),34.1 µM (inactive),,65 µM (inactive),16.6 µM (inactive)
CCN(CC)CCNc1ccc(/N=N/c2ccc(S(N)(=O)=O)cc2)c2ccccc12,13.6 µM (inactive),4.24 µM (inactive),12 µM (inactive),4.52,14.1 µM (inactive),4.33 µM (inactive),11.9 µM (inactive),2.43 µM (inactive),4.51 µM (inactive),8.75 µM (inactive),5.06 µM (inactive),2.1 µM (inactive),7.4 µM (inactive),8.89 µM (inactive),4.3 µM (inactive),13.7 µM (inactive),,14.9 µM (inactive),24.2 µM (inactive)
